According to patent US20210084902A1, “FUNGICIDAL MIXTURE COMPRISING SUBSTITUTED 3-PHENYL-5-(TRIFLUOROMETHYL)-1,2,4-OXADIAZOLES” (BASF SE, priority 2017, published 2021):
Like-named read-outs stand apart in the source and are kept apart here.

Columns and labels:
Type in all cases: cell-based
[1] = test system: Botrytis cinerea; assay: Fungicidal activity against Botrytis cinerea, micro titer plate (MTP) test; conditions: Botrytis cinerea, 168 h, read-out: Observed efficacy
[2] = test system: Colletotrichum orbiculare; assay: Fungicidal activity against Colletotrichum orbiculare in the microtiterplate test; conditions: for inhibition of growth at 6.3e-05 ppm: 0.000063 ppm
[3] = test system: Leptosphaeria nodorum; assay: Fungicidal activity against Leptosphaeria nodorum, microtiter plate (MTP) test
[4] = test system: Pyricularia oryzae; assay: microbe, parasite or virus in culture; conditions: Pyricularia oryzae, 168 h, read-out: Observed efficacy
[5] = test system: Septoria tritici; assay: Fungicidal activity against Septoria tritici, micro titer plate (MTP) test; conditions: Zymoseptoria tritici, 168 h, read-out: Observed efficacy
[6] = Colletotrichum orbiculare, read-out: Observed efficacy
[7] = Parastagonospora nodorum, 168 h, 0.063 ppm, read-out: Observed efficacy
[8] = Colletotrichum orbiculare, 0.25 ppm, read-out: Observed efficacy
[9] = Table V.4, component B alone, 0.063 ppm
[10] = Parastagonospora nodorum, 168 h, read-out: Observed efficacy
[11] = Parastagonospora nodorum, 168 h, 0.25 ppm, read-out: Observed efficacy
[12] = Table V.4, component B alone, 0.25 ppm
[13] = Parastagonospora nodorum, 168 h, 0.004 ppm, read-out: Observed efficacy
[14] = Colletotrichum orbiculare, 0.016 ppm, read-out: Observed efficacy
[15] = Colletotrichum orbiculare, 0.063 ppm, read-out: Observed efficacy
[16] = Colletotrichum orbiculare, 0.00025 ppm, read-out: Observed efficacy
[17] = Colletotrichum orbiculare, 0.001 ppm, read-out: Observed efficacy

CNC(=O)C(=N/OC)/C(C)=C\COc1ccn(-c2ccc(Cl)cc2Cl)n1 [A.1.34, (Z,2E)-5-[1-(2,4-dichlorophenyl)pyrazol-3-yl]-oxy-2-methoxyimino-N,3-dimethyl-pent-3-enamide]
inhibition of growth at 16 ppm ([1]; component B alone): 2%
inhibition of growth at 63 ppm ([1]; component B alone): 18%
inhibition of growth at 6.3e-05 ppm [2, 6]: 37%
inhibition of growth at […] [3, 7]: 45%

Cn1nc(C(F)F)c(C(=O)Nc2ccccc2Oc2ccc(C(F)(F)F)cc2Cl)c1F [A.3.29, N-[2-[2-chloro-4-(trifluoromethyl)phenoxy]phenyl]-3-(difluoromethyl)-5-fluoro-1-methyl-pyrazole-4-carboxamide]
inhibition of growth at […] ([1]; component B alone, 0.25 ppm): 55%
inhibition of growth at […] [2, 8]: 4%
inhibition of growth at 1 ppm [2, 6]: 11%
inhibition of growth at 1 ppm [4]: 14%
inhibition of growth at […] [5, 9]: 68%

CCCCNC(=O)n1c(NC(=O)OC)nc2ccccc21 [Benomyl, benomyl]
inhibition of growth at […] ([1]; component B alone, 0.016 ppm): 8%
inhibition of growth at 9 ppm ([2]; Colletotrichum orbiculare, 9 ppm, read-out: Observed efficacy): 38%
inhibition of growth at 1 ppm [3, 10]: 15%

O=C1C2CC=CCC2C(=O)N1SC(Cl)(Cl)Cl (stereo not shown) [Captan, captan]
inhibition of growth at […] ([1]; component B alone, 0.25 ppm): 20%
inhibition of growth at 1 ppm ([1]; component B alone): 73%
inhibition of growth at […] [2, 8]: 21%
inhibition of growth at […] [3, 11]: 13%
inhibition of growth at 1 ppm [3, 10]: 44%
inhibition of growth at 1 ppm [4]: 53%
inhibition of growth at […] [5, 12]: 22%

N#Cc1c(Cl)c(Cl)c(Cl)c(C#N)c1Cl [Chlorothalonil, chlorothalonil]
inhibition of growth at 1 ppm ([1]; component B alone): 22%
inhibition of growth at 1 ppm [3, 10]: 72%
inhibition of growth at […] [5, 12]: 25%

Cc1ccc(-c2c(Cl)nc(C#N)n2S(=O)(=O)N(C)C)cc1 [Cyazofamid, cyazofamid]
inhibition of growth at […] [3, 11]: 6%
inhibition of growth at 4 ppm [4]: 13%
inhibition of growth at 4 ppm ([5]; Table V.4, component B alone): 2%
inhibition of growth at 16 ppm ([5]; Table V.4, component B alone): 8%

Cc1cc(C2CC2)nc(Nc2ccccc2)n1 [Cyprodinil, cyprodinil]
inhibition of growth at 1 ppm ([1]; component B alone): 66%
inhibition of growth at 1 ppm [2, 6]: 35%
inhibition of growth at 4 ppm [2, 6]: 38%
inhibition of growth at 0.004 ppm [3, 13]: 71%
inhibition of growth at 1 ppm [4]: 56%

CC1COC(Cn2cncn2)(c2ccc(Oc3ccc(Cl)cc3)cc2Cl)O1 (stereo not shown) [Difenoconazol, difenoconazole]
inhibition of growth at […] [2, 14]: 1%
inhibition of growth at […] [2, 8]: 14%
inhibition of growth at […] [3, 7]: 41%
inhibition of growth at […] ([5]; Table V.4, component B alone, 0.016 ppm): 4%

COc1ccc(C(=CC(=O)N2CCOCC2)c2ccc(Cl)cc2)cc1OC [Dimethomorph, dimethomorph]
inhibition of growth at 4 ppm [2, 6]: 21%
inhibition of growth at 4 ppm [3, 10]: 41%
inhibition of growth at 1 ppm [4]: 4%
inhibition of growth at 4 ppm [4]: 8%
inhibition of growth at 4 ppm ([5]; Table V.4, component B alone): 11%

CC(Cc1ccc(C(C)(C)C)cc1)CN1CCCCC1 (stereo not shown) [Fenpropidin, fenpropidin]
inhibition of growth at 4 ppm ([1]; component B alone): 28%
inhibition of growth at 1 ppm [2, 6]: 9%
inhibition of growth at 4 ppm [2, 6]: 47%
inhibition of growth at 1 ppm [3, 10]: 38%
inhibition of growth at 1 ppm ([5]; Table V.4, component B alone): 1%

CC(Cc1ccc(C(C)(C)C)cc1)CN1C[C@@H](C)O[C@@H](C)C1 (stereo partly shown) [Fenpropimorph, fenpropimorph]
inhibition of growth at […] ([1]; component B alone, 0.25 ppm): 29%
inhibition of growth at […] [2, 8]: 5%
inhibition of growth at 1 ppm [2, 6]: 19%
inhibition of growth at 1 ppm [4]: 8%
inhibition of growth at […] [5, 12]: 0%

CO/N=C(/C1=NOCCO1)c1ccccc1Oc1ncnc(Oc2ccccc2Cl)c1F [Fluoxastrobin, fluoxastrobin]
inhibition of growth at […] [2, 15]: 51%
inhibition of growth at […] [3, 11]: 38%
inhibition of growth at […] [5, 9]: 3%
inhibition of growth at […] [5, 12]: 32%

O=C1c2ccccc2C(=O)N1SC(Cl)(Cl)Cl [Folpet, folpet]
inhibition of growth at 1 ppm ([1]; component B alone): 13%
inhibition of growth at 1 ppm [2, 6]: 20%
inhibition of growth at 1 ppm [3, 10]: 40%
inhibition of growth at 1 ppm [4]: 14%
inhibition of growth at 1 ppm ([5]; Table V.4, component B alone): 70%

CNC(=O)c1ccc(-c2noc(C(F)(F)F)n2)cc1 [I.A, N-methyl-4-[5-(trifluoromethyl)-1,2,4-oxadiazol-3-yl]benzamide]
inhibition of growth at […] ([1]; I.A alone, 0.25 ppm): 3%
inhibition of growth at 4 ppm ([1]; I.A alone): 1%
inhibition of growth at 16 ppm ([1]; I.A alone): 12%
inhibition of growth at […] [2, 16]: 2%
inhibition of growth at 0.001 ppm [2, 17]: 2%
inhibition of growth at 0.004 ppm [2, 6]: 2%
inhibition of growth at […] [2, 14]: 2%
inhibition of growth at […] [2, 15]: 71%
inhibition of growth at […] [3, 7]: 3%
inhibition of growth at 1 ppm [3, 10]: 6%
inhibition of growth at 4 ppm [3, 10]: 14%
inhibition of growth at 16 ppm [3, 10]: 27%
inhibition of growth at 1 ppm [4]: 6%
inhibition of growth at 4 ppm [4]: 12%
inhibition of growth at 16 ppm [4]: 38%
inhibition of growth at […] ([5]; Table V.7, I.A alone, 0.063 ppm): 3%
inhibition of growth at […] ([5]; Table V.7, I.A alone, 0.25 ppm): 2%
inhibition of growth at 1 ppm ([5]; Table V.7, I.A alone): 0%
inhibition of growth at 4 ppm ([5]; Table V.7, I.A alone): 8%
inhibition of growth at 16 ppm ([5]; Table V.7, I.A alone): 19%

O=C(Nc1ccccc1F)c1ccc(-c2noc(C(F)(F)F)n2)cc1 [I.E, N-(2-fluorophenyl)-4-[5-(trifluoromethyl)-1,2,4-oxadiazol-3-yl]benzamide]
inhibition of growth at […] ([1]; I.E alone, 0.063 ppm): 2%
inhibition of growth at 1 ppm ([1]; I.E alone): 2%
inhibition of growth at 4 ppm ([1]; I.E alone): 2%
inhibition of growth at 16 ppm ([1]; I.E alone): 3%
inhibition of growth at 63 ppm ([1]; I.E alone): 16%
inhibition of growth at […] [2, 8]: 4%
inhibition of growth at 1 ppm [2, 6]: 4%
inhibition of growth at 4 ppm [2, 6]: 11%
inhibition of growth at 16 ppm ([2]; Colletotrichum orbiculare, 16 ppm, read-out: Observed efficacy): 52%
inhibition of growth at 16 ppm [3, 10]: 18%
inhibition of growth at 63 ppm ([3]; Parastagonospora nodorum, 168 h, 63 ppm, read-out: Observed efficacy): 22%
inhibition of growth at 1 ppm [4]: 5%
inhibition of growth at 4 ppm [4]: 5%
inhibition of growth at 16 ppm [4]: 6%
inhibition of growth at 63 ppm [4]: 9%
inhibition of growth at […] ([5]; Table V.6, I.E alone, 0.25 ppm): 13%
inhibition of growth at 4 ppm ([5]; Table V.6, I.E alone): 7%
inhibition of growth at 16 ppm ([5]; Table V.6, I.E alone): 13%
inhibition of growth at 63 ppm ([5]; Table V.6, I.E alone, 63 ppm): 14%

CNC(=S)c1ccc(-c2noc(C(F)(F)F)n2)cc1 [I.M, N-methyl-4-[5-(trifluoromethyl)-1,2,4-oxadiazol-3-yl]benzenecarbothioamide]
inhibition of growth at […] ([1]; I.M alone, 0.063 ppm): 1%
inhibition of growth at […] ([1]; I.M alone, 0.25 ppm): 2%
inhibition of growth at 1 ppm ([1]; I.M alone): 0%
inhibition of growth at 4 ppm ([1]; I.M alone): 15%
inhibition of growth at 6.3e-05 ppm [2, 6]: 2%
inhibition of growth at […] [2, 16]: 2%
inhibition of growth at 0.001 ppm [2, 17]: 1%
inhibition of growth at 0.004 ppm [2, 6]: 1%
inhibition of growth at […] [2, 14]: 7%
inhibition of growth at 0.004 ppm [3, 13]: 6%
inhibition of growth at […] ([3]; Parastagonospora nodorum, 168 h, 0.016 ppm, read-out: Observed efficacy): 5%
inhibition of growth at […] [3, 11]: 7%
inhibition of growth at 1 ppm [3, 10]: 18%
inhibition of growth at 4 ppm [3, 10]: 52%
inhibition of growth at 1 ppm [4]: 9%
inhibition of growth at 4 ppm [4]: 32%
inhibition of growth at […] ([5]; Table V.5, I.M alone, 0.063 ppm): 14%
inhibition of growth at […] ([5]; Table V.5, I.M alone, 0.25 ppm): 23%
inhibition of growth at 1 ppm ([5]; Table V.5, I.M alone): 35%
inhibition of growth at 4 ppm ([5]; Table V.5, I.M alone): 42%

CCN(C)C=Nc1cc(Br)c(OC2CCC(C(C)C)CC2)nc1C (stereo not shown) [K.1.32, N′-[5-bromo-6-(4-isopropylcyclohexoxy)-2-methyl-3-pyridyl]-N-ethyl-N-methyl-formamidine]
inhibition of growth at […] [2, 8]: 26%
inhibition of growth at […] [3, 11]: 40%
inhibition of growth at […] [5, 12]: 0%
inhibition of growth at 1 ppm ([5]; Table V.4, component B alone): 0%

CC(O)(Cn1cncn1)c1ccc(Oc2ccc(Cl)cc2)cc1C(F)(F)F (stereo not shown) [Mefentrifluconazol, mefentrifluconazole]
Observed efficacy ([2]; 0.001 ppm): 1
Observed efficacy ([3]; 0.004 ppm): 53

CNC(=O)/C(=N/OC)c1ccccc1Oc1ccccc1 [Metominostrobin, metominostrobin]
inhibition of growth at 1 ppm [3, 10]: 43%
inhibition of growth at 1 ppm [4]: 59%
inhibition of growth at 1 ppm ([5]; Table V.4, component B alone): 46%
